Earlier results as cited in patent US20240044899A1, “BIOMARKERS FOR FIMEPINOSTAT THERAPY” (Curis, Inc, priority 2021, published 2024).
Like-named read-outs stand apart in the source and are kept apart here.

System: MYC-altered DLBCL/HGBL patients
Settings: Prospective phase 2, cited from earlier work

Compound | CRR (DHL, sample size 16) [%] | ORR (DHL, sample size 16) [%/] | ORR (MYC IHC >40%, sample size 47) [%]
Tisagenlecleucel | 25 | 50 | 
O=C(/C=C\n1cnc(-c2cc(C(F)(F)F)cc(C(F)(F)F)c2)n1)NNc1cnccn1 [Selinexor, reference compound] |  |  | 13
